≈ marks a conversion by molar mass, not a printed value.
How the values were obtained:
[1] = Aqueous solubility, saturation shake-flask method, UV absorbance; details: phosphate buffer, pH 7, aqueous buffer, thermodynamic from solid
Procedure: UV absorbance at three maximum absorbance wavelengths of selected compounds was measured after 48 h shaking and subsequent microfiltration.
The aqueous solubility of the sulfonamides was determined using an approach based on the saturation shake-flask method. Tested compounds (1–2 mg) were stirred in pH 7.0 phosphate buffer (300 µL) for 48 h at room temperature. The resulting suspension was filtered over a 45 µm filter to discard insoluble residues, and the concentration in the supernatant was measured by UV absorbance. To determine the concentration, a scan between 270 and 400 nm was performed in a Helios-α UV-320 Spectrophotometer (Thermo-Spectronic, Thermo Fischer Scientific, Waltham, MA, USA) for each tested compound. Then, three maximum wavelengths of absorbance per compound were selected from the previous scan and calibration curves were performed at these three wavelengths. Solubility results are given as the average of the three measurements.

[2] = tested on: HT-29 (colon adenocarcinoma); test: Antiproliferative activity against CA-4-resistant HT-29 with or without verapamil (sensitivity to MDR pumps, XTT); format: cell-based, human; details: for Difference between pairs of HT-29 IC50 values in the presence or absence of verapamil: 10 µM verapamil, up to two-fold change counted as not significant; for IC50: Homo sapiens, HT-29, 72 h, XTT, without verapamil, read-out: Antiproliferative Activity IC50 HT-29
Description: Detecting changes in drug potency when inhibiting MDR-mediated efflux reflect that these transporters reduce the intracellular drug concentration. HT-29 has been reported to express moderate levels of MDR1, accounting for a resistant phenotype. A comparison of the antiproliferative IC50 values of each MDS in the presence or absence of verapamil provides an estimate of the susceptibility of each compound to efflux pumps.
(§1) MCF7 (human breast carcinoma), SKOV-3 (human ovarian carcinoma), OVCAR-3 (human ovarian carcinoma), OVCAR-8 (human ovarian carcinoma), and HeLa (human cervical carcinoma) cell lines were cultured in Dulbecco’s Modified Eagle’s Medium (DMEM) (Gibco, Thermo Fischer Scientific) containing 10% (v/v) heat-inactivated fetal bovine serum (HIFBS) (Lonza-Cambrex, Karlskoga, Sweden), 2 mM L-glutamine (Lonza-Cambrex, Karlskoga, Sweden), 100 μg/mL streptomycin, and 100 IU/mL penicillin (Lonza-Cambrex) at 37 °C in humidified 95% air and 5% CO2. HT-29 (human colon carcinoma), IGROV-1 (human ovarian carcinoma), and A2780 (human ovarian carcinoma) cell lines were cultured in RPMI 1640 medium (Gibco, Thermo Fischer Scientific) supplemented with 10% HIFBS, 100 μg/mL streptomycin, and 100 IU/mL penicillin at 37 °C in humidified 95% air and 5% CO2 atmosphere. The presence of mycoplasma was routinely checked with MycoAlert kit (Lonza-Cambrex) and only mycoplasma-free cells were used in the experiments. Ovarian tumor cell lines were originally acquired from Dr Atanasio Pandiella from Centro de Investigación del Cáncer (CIC), Salamanca, Spain. HeLa, HT-29 and MCF7 tumor cell lines were provided by Dr Faustino Mollinedo from Centro de Investigaciones Biológicas Margarita Salas, Madrid, Spain.
MCF7, HeLa, and HT-29 cell proliferation, when treated with the corresponding compounds, were determined using the XTT (sodium 3’-[1(phenylaminocarbonyl)-3,4-tetrazolium]-bis(4-methoxy-6-nitro)-benzenesulfonic acid hydrate) cell proliferation kit (Roche Molecular Biochemicals, Mannheim, Germany). A freshly prepared mixture of XTT labeling reagent with 0.02% (v/v) PMS (N-methyl-dibenzopyrazine methyl sulfate) electron coupling reagent was added to cells (50 µL/well in 96-well plates, total volume of 160 µL/well). Cells were incubated under standard culture conditions for 4 h (MCF7 and HeLa) or 6 h (HT-29). The absorbance of the formazan product generated was measured at 450 nm using a multi-well plate reader. SKOV-3, OVCAR-3, OVCAR-8, IGROV-1, A-2780 cell proliferation, when treated with the corresponding compound, were determined using MTT (3-(4,5-dimethylthiazol-2-yl)-2,5-diphenyl-2H-tetrazolium bromide) (Sigma-Aldrich, St. Louis, MO, USA). MTT in Phosphate Buffer Saline (PBS) (5 mg/ml) was added to cells (110 µL/well in 24-well plates, total volume of 1110 µL/well). After 1 hour of incubation, the medium was aspirated, and formazan violet crystals were dissolved in dimethyl sulfoxide (DMSO) (500 µL/well). Absorbance was measured at 570 nm in a plate reader (Ultra Evolution, Tecan, Männedorf, Suiza). To determine cell viability, cells in exponential growth phase were seeded (100 µL/well in 96-well plates and 1000 µL/well in 24-well plates) with appropriate cell line concentration (1.5·10^4 cells/mL for MCF7 and HeLa, 3·10^4 cells/mL for HT-29, and 1·10^4 cells/mL for SKOV-3, OVCAR-3, OVCAR-8, IGROV-1, and A-2780) in complete RPMI 1640 or DMEM medium at 37°C and 5% CO2 atmosphere. After 24 h incubation, to allow cells to attach to the plates, all compounds were added at 1 µM concentration and the effect on the proliferation was evaluated 72 h post-treatment. […] Non-linear curves fitting the experimental data were carried out for each compound. Compounds were dissolved in DMSO and the final solvent concentrations never exceeded 0.5% (v/v). The control wells included […] with 0.5% (v/v) DMSO and the positive control. 10 µM verapamil was included as a control for the HT-29 cell line.

[3] = tested on: IGROV-1 ovarian carcinoma cells; test: Antiproliferative activity against IGROV-1 (MTT); format: cell-based; details: Homo sapiens, 72 h
Procedure: The in vitro antiproliferative activity of compounds 38, 42, and 45 against a panel of five human ovarian carcinoma cell lines (SKOV3, IGROV-1, A2780, OVCAR-8, and OVCAR-3) was evaluated by a colorimetric method (Table 3) and compared with paclitaxel. […] For SKOV3, the potency reduction observed for paclitaxel together with a sustained or improved (42 with a 7 nM IC50 value) potency for MDS results in a more favorable profile of the MDS compared to paclitaxel.
as §1
MCF7, HeLa, and HT-29 cell proliferation, when treated with the corresponding compounds, were determined using the XTT (sodium 3’-[1(phenylaminocarbonyl)-3,4-tetrazolium]-bis(4-methoxy-6-nitro)-benzenesulfonic acid hydrate) cell proliferation kit (Roche Molecular Biochemicals, Mannheim, Germany). […] The absorbance of the formazan product generated was measured at 450 nm using a multi-well plate reader. SKOV-3, OVCAR-3, OVCAR-8, IGROV-1, A-2780 cell proliferation, when treated with the corresponding compound, were determined using MTT (3-(4,5-dimethylthiazol-2-yl)-2,5-diphenyl-2H-tetrazolium bromide) (Sigma-Aldrich, St. Louis, MO, USA). […] Absorbance was measured at 570 nm in a plate reader (Ultra Evolution, Tecan, Männedorf, Suiza). […] After 24 h incubation, to allow cells to attach to the plates, all compounds were added at 1 µM concentration and the effect on the proliferation was evaluated 72 h post-treatment. […]

solubility at 48 h [1] [µg/mL]	Difference between pairs of HT-29 IC50 values in the presence or absence of verapamil [2]	IC50 [2] [µM]	IC50 [3] [µM]	SMILES
108 (≈ 282 µM)	no significant differences	0.081	0.4	COc1ccc(S(=O)(=O)N(C)c2cc(OC)c(OC)c(OC)c2)cc1N [Compound 42]
16 (≈ 43.7 µM)	no significant differences	0.059	0.248	CNc1ccc(S(=O)(=O)N(C)c2cc(OC)c(OC)c(OC)c2)cc1 [Compound 38]
14 (≈ 30.5 µM)	no significant differences	0.3	0.492	COc1ccc(S(=O)(=O)N(Cc2ccccc2)c2cc(OC)c(OC)c(OC)c2)cc1N [Compound 45]

— article PMC7918738, “Microtubule Destabilizing Sulfonamides as an Alternative to Taxane-Based Chemotherapy” (International Journal of Molecular Sciences, 2021)
